In ChEMBL document CHEMBL1201862, “PubChem BioAssay data set” (2004):
The source made the active and inactive calls.

Assays:
Prothrombin = Prothrombin (Bos taurus, UniProt P00735); assay: thrombin inhibition, dose response, biochemical, fluorescence polarization, uHTS hits (AID 602369); assay type: functional
[1] = test system: Streptococcus sp. 'group A'; assay: growth inhibition of control SK(-) GAS strain, dose response, counter-screen for streptokinase expression inhibitor project, luminescence, kanamycin, BacTiterGlo, confirmation (AID 1900); assay type: functional, organism-based
[2] = target: 72 kDa type IV collagenase (Homo sapiens, UniProt P08253); assay: Dose Response validation of uHTS RPN11 inhibitor hits using a MMP-2 Fluorescence assay.; assay type: functional
Chain of 72 kDa type IV collagenase (P08253 whole entry): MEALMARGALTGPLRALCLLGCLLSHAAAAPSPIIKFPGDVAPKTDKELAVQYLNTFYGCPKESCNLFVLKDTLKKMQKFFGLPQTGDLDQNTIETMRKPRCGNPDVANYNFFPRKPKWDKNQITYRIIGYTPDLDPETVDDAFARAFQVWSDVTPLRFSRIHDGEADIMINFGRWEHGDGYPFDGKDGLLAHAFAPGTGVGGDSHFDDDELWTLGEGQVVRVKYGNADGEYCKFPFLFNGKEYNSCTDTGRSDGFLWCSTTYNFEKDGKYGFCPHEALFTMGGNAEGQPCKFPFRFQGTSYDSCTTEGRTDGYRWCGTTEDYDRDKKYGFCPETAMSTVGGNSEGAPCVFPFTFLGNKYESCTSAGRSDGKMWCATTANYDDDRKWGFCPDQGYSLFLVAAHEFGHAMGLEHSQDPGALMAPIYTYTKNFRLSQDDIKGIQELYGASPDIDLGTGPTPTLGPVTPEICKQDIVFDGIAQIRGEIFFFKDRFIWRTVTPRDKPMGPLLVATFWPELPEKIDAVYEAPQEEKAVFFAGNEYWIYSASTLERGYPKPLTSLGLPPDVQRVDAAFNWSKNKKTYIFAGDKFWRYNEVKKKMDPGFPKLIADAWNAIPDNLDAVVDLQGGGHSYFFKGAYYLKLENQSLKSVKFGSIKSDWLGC

[3] = Luminescence Cell-Based Dose Retest to Confirm Inhibitors of Cancer Stem Cells. [Related pubchem assays (depositor defined):AID2717, AID2721]; assay type: functional, Homo sapiens; details: Homo sapiens
[4] = target: 26S proteasome non-ATPase regulatory subunit 14 (Homo sapiens, UniProt O00487); assay: inhibition of proteasome subunit RPN11 – biochemical, fluorescence polarization, uHTS hits, confirmation (AID 602368); assay type: functional
Chain of 26S proteasome non-ATPase regulatory subunit 14 (O00487 whole entry): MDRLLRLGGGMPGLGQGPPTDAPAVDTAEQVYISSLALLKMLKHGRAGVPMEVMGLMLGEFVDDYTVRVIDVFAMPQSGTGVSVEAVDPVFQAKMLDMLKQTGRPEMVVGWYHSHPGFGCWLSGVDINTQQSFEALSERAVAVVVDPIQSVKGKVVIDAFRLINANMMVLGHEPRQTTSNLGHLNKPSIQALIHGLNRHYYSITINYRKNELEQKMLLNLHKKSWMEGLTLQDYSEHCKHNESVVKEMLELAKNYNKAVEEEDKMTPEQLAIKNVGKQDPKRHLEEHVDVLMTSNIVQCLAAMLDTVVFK

Streptococcus = assay: Group A Streptococcus viability loss, dose response, counter-screen for streptokinase expression inhibitor project, luminescence, BacTiterGlo (AID 1915); assay type: functional, organism-based;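 further: potency for reduction of bacterial viability or growth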
[5] = cytotoxicity in HEK-293T cells, dose response, cytotoxicity control for BCR NF-kB inhibitor project, luminescence, B-cell screen hits (AID 489021); assay type: functional, cell-based;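 further: HEK-293T cells carrying an NF-kB luciferase reporter; cells exposed to compound for about 14 hours before viability readout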
Cytochrome P450 2D6 = Cytochrome P450 2D6 (Homo sapiens, UniProt P10635);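 further: CYP2D6 member of a cytochrome P450 panel assay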
Chain of Cytochrome P450 2D6 (P10635 whole entry): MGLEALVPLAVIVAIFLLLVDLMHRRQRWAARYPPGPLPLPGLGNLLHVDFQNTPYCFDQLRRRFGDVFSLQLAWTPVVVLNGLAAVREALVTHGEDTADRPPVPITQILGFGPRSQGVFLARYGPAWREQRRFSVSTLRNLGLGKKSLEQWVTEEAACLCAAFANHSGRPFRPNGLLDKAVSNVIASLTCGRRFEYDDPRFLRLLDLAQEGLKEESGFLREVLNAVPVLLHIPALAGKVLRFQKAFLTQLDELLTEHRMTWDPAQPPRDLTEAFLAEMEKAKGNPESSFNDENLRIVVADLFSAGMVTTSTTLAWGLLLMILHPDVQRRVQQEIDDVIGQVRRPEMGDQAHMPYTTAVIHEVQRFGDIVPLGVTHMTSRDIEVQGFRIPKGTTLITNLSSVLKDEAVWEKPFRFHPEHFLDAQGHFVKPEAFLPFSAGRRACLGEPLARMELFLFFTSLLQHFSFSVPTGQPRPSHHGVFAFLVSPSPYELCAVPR

Cytochrome P450 2C19 = Cytochrome P450 2C19 (Homo sapiens, UniProt P33261); assay: Cytochrome panel assay with activity outcomes. Panel member name: p450-cyp2c19 Compounds with AC50 equal or less than 10 uM are considered active; assay type: functional
Chain of Cytochrome P450 2C19 (P33261 whole entry): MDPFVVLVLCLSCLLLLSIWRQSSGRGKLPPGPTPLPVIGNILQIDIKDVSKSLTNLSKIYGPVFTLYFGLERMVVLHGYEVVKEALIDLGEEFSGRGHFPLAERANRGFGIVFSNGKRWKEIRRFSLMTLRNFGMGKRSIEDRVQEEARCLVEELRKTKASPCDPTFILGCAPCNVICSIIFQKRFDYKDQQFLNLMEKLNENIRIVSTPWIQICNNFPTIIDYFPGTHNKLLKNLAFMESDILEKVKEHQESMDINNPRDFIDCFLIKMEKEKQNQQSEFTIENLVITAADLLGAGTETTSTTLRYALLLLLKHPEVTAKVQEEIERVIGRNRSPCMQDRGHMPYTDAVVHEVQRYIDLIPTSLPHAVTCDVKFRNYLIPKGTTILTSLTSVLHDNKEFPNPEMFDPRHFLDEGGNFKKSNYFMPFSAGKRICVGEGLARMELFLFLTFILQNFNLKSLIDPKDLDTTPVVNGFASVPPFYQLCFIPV

[6] = target: T1, Sentrin-specific protease 8 (Homo sapiens, UniProt Q96LD8); assay type: functional
T1 sequence (Q96LD8 whole entry): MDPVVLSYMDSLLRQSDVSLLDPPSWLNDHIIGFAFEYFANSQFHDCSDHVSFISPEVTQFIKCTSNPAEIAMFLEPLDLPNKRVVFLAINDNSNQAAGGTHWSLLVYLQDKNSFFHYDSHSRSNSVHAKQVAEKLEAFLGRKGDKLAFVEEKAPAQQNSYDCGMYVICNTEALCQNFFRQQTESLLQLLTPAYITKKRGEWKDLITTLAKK

[7] = target: T1, Sentrin-specific protease 8; assay type: functional; remark: listed apart in the source
[8] = target: DNA dC->dU-editing enzyme APOBEC-3G (Homo sapiens, UniProt Q9HC16); assay: Dose Response confirmation of small molecule APOBEC3G DNA Deaminase Inhibitors via a fluorescence-based single-stranded DNA deaminase assay. [Related pubchem assays (depositor defined):AID493012, AID493028]; assay type: functional
Chain of DNA dC->dU-editing enzyme APOBEC-3G (Q9HC16 whole entry): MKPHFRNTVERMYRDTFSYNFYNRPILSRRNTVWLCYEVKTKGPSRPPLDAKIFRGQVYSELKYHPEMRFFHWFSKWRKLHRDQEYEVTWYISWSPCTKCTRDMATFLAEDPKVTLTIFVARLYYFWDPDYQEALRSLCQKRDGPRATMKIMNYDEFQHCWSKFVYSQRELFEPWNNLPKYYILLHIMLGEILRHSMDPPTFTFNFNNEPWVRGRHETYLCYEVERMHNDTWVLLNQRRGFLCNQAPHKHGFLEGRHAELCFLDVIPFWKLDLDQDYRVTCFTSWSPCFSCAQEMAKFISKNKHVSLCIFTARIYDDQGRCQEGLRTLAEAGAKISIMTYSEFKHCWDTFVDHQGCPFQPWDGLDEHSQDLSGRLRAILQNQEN

Q: Which IC50 (Prothrombin) does the source give for O=C(CSc1nc(O)c2c(C(F)(F)F)cc(-c3cccs3)nc2n1)Nc1ccc(F)c(F)c1 here?
A: 79.4 µM (active)

Q: What about the EC50 [1] of the same compound?
A: 1.12 µM (active)

Q: What about the IC50 [2] of the same compound?
A: > 100 µM (inactive)

Q: And the AC50 [3]?
A: 1.27 µM (active)

Q: And the IC50 [4]?
A: 42.7 µM (active)

Q: And the EC50 (Streptococcus)?
A: 2.58 µM (active)

Q: For O=S(=O)(c1cnc(Cl)c(Cl)c1)N1CCCc2ccccc21, which IC50 [5] is on record?
A: > 80 µM (inactive)

Q: Which IC50 (Prothrombin) does the source give for Cc1[nH]c2ccccc2c1/C=C/C(=O)c1ccncc1 here?
A: 48.4 µM (active)

Q: And the IC50 [2]?
A: > 100 µM (inactive)

Q: What about the IC50 [4] of the same compound?
A: 38.8 µM (active)

Q: Which results are given for NC1(C(=O)O)CCCCC1?
A: AC50 (Cytochrome P450 2D6): inconclusive; AC50 (Cytochrome P450 2C19): inconclusive

Q: Which IC50 [6] does the source give for Cc1cc(N2C(=O)Cc3ccccc3C2=O)ccc1C(C)C here?
A: > 100 µM (inactive)

Q: What about the IC50 [7] of the same compound?
A: 4.5 µM (active)

Q: Which AC50 (Cytochrome P450 2D6) does the source give for Cc1cccc(OCCn2c(S(=O)(=O)O)nc3ccccc32)c1 here?
A: inconclusive

Q: Which IC50 [8] does the source give for CCOC(=O)c1sc(N)c(C(=O)Nc2ccccc2OC)c1C here?
A: 68.9 µM (active)

Q: For CC(=O)Nc1ccccc1C(=O)C(=O)O, which AC50 (Cytochrome P450 2D6) is on record?
A: inconclusive

Q: What about the AC50 (Cytochrome P450 2C19; read-out: AC50) of the same compound?
A: 10 µM (inconclusive)
